Data as given in US11337990B2, “Human milk oligosaccharides to promote growth of beneficial bacteria” (ABBOTT LABORATORIES, priority 2010, dated 2022).
“Also recorded” adds a separate entry of the source.

How the values were obtained:
bifidobacteria strains = assay: Bacterial growth assay (OD600), panel of 12 strains; type: cell-based, Bifidobacterium; settings: 1% carbohydrate in sMRS+cysteine
Experimental: (§1) Coy Laboratory Products, Grass Lake, Mich.). Subsequently, the cultures are passed twice on a semi-synthetic MRS medium ([…] which is supplemented with 1% (w/v) filter-sterilized glucose as the sole carbohydrate source. […] For bifidobacteria strains, the same procedure is followed except all media are supplemented with 0.5 g/l L-cysteine/HCl. [table] After the 2nd pass in sMRS+glucose+cysteine, the cultures are washed once with 10 mL of sterile sMRS+cysteine (no carbohydrate), resuspended in 10 ml of sterile sMRS+cysteine (no carbohydrate) and then used as a 1% inoculum. The carbohydrates are sterilized with a 0.22 micron filter and used at a 1% final concentration. Cell growth is performed in 250 μL of sMRS+cysteine covered with 50 μL of mineral oil in a Bioscreen 100-well Honeycomb plate. […] The plate reader is operated in discontinuous mode, with absorbance readings performed in 30-minute intervals, and preceded by 30-second shaking intervals at maximum speed. Controls consist of inoculated medium lacking carbohydrate. […] All three plates include a positive control (glucose) and negative control (no carbohydrate). The OD600 data for each carbohydrate is corrected by subtracting the OD600 of the basal media (sMRS)+cysteine from the sample plate for each probiotic. Maximum OD is determined by inspection of the corrected growth data. OD is determined by subtracting the initial corrected OD (time point 0) from the maximum corrected OD. Samples are grown in biologically independent triplicates and the resulting growth kinetic data are expressed as the mean of these replicates. For the growth curve plots, OD600 vs. time is first plotted for the bacteria grown on medium lacking carbohydrate (sMRS). For all other carbohydrates, the OD600 data is corrected by subtracting the OD600 of sMRS.

B. infantis ATCC 15697 = assay: Bacterial growth assay (OD600); type: cell-based, Bifidobacterium infantis; settings: 1% carbohydrate in sMRS+cysteine
Experimental: as §1

B. infantis M-63 = assay: Bacterial growth assay (OD600); type: cell-based, Bifidobacterium infantis; settings: 1% carbohydrate in sMRS+cysteine
Experimental: as §1

B. breve ATCC 15700 = assay: Bacterial growth assay (OD600); type: cell-based, Bifidobacterium breve; settings: 1% carbohydrate in sMRS+cysteine
Experimental: Coy Laboratory Products, Grass Lake, Mich.). Subsequently, the cultures are passed twice on a semi-synthetic MRS medium ([…] which is supplemented with 1% (w/v) filter-sterilized glucose as the sole carbohydrate source. […] For bifidobacteria strains, the same procedure is followed except all media are supplemented with 0.5 g/l L-cysteine/HCl. […] After the 2nd pass in sMRS+glucose+cysteine, the cultures are washed once with 10 mL of sterile sMRS+cysteine (no carbohydrate), resuspended in 10 ml of sterile sMRS+cysteine (no carbohydrate) and then used as a 1% inoculum. The carbohydrates are sterilized with a 0.22 micron filter and used at a 1% final concentration. Cell growth is performed in 250 μL of sMRS+cysteine covered with 50 μL of mineral oil in a Bioscreen 100-well Honeycomb plate. […] The plate reader is operated in discontinuous mode, with absorbance readings performed in 30-minute intervals, and preceded by 30-second shaking intervals at maximum speed. Controls consist of inoculated medium lacking carbohydrate. […] Maximum OD is determined by inspection of the corrected growth data. OD is determined by subtracting the initial corrected OD (time point 0) from the maximum corrected OD. Samples are grown in biologically independent triplicates and the resulting growth kinetic data are expressed as the mean of these replicates. […]

Bifidobacterium spp. = assay: qPCR of bacterial populations in in vitro fecal fermentation; type: cell-based; settings: overall, 0-12 h fermentation; sodium salt
infant fecal bacteria = assay: In vitro substrate fermentation model with infant feces (pH, SCFA, lactate); type: cell-based, human infant
HT-29 cells [1] = assay: Alkaline phosphatase activity per milligram of protein (cell differentiation), HT-29; type: cell-based, human; settings: Example 48: LNnT or 2′FL 20, 200, 2000 mg/L; 6′SL 40, 400; 72 hours
Experimental: (§2) In a first experiment, HT-29 cells, which model the immature epithelial cells of the small intestine, are incubated in a humidified atmosphere of 5% carbon dioxide at 37° C. in the presence of LNnT or 2′FL at concentrations of 0 mg/L (“0”), 20 mg/L (“20”), 200 mg/L (“200”), and 2000 mg/L (“2000”) or in the presence of 6′SL at concentrations of 0 mg/mL (“0”), 40 mg/mL (“40”), 400 mg/mL (“400”), and 4000 mg/mL (“4000”) for 72 hours. The culture medium utilized is Dulbecco's Modified Eagle Medium (Life Technologies, Foster City Calif.) supplemented with 10% fetal calf serum and 2 mM glutamine. The controls (“energy”) consist of 91.5 mg lactose and 64.2 mg N-acetyllactosamine/L for LNnT; 133 mg lactose and 67 mg fucose/L for 2′FL; and 195 mg lactose and 205 mg/L sialic acid for 6′SL. The impact of the LNnT, 2′FL, and 6′SL at various levels and the controls on HT-29 cell proliferation is measured using a conventional BrdU assay, which measures the number of cells that have recently synthesized DNA. […] Additionally, the impact of LNnT, 2′FL, and 6′SL at various levels and the controls on the alkaline phosphatase activity per milligram of protein for HT-29 cells, which is an indicator of cell differentiation, is measured.

HT-29 cells [2] = assay: HT-29 cell proliferation, BrdU assay; type: cell-based, human; settings: Example 48: LNnT or 2′FL 20, 200, 2000 mg/L; 6′SL 40, 400; 72 hours; sodium salt
Experimental: In a first experiment, HT-29 cells, which model the immature epithelial cells of the small intestine, are incubated in a humidified atmosphere of 5% carbon dioxide at 37 C in the presence of LNnT at concentrations of 0 mg/L (“0”), 100 mg/L (“100”), 200 mg/L (“200”), and 400 mg/L (“400”) for either 48 hours or 72 hours. The culture medium utilized is Dulbecco's Modified Eagle Medium (Life Technologies, Foster City Calif.) supplemented with 10% fetal calf serum and 2 mM glutamine. The control consists of a combination of 91.5 mg lactose and 62.4 mg galactosamine (“LG”) per Liter of the Dulbecco's Modified Eagle Medium set forth above. The impact of the LNnT at various levels and the control on HT-29 cell proliferation is measured using a conventional BrdU assay, which measures the number of cells that have recently synthesized DNA.
as §2

Caco-2 cells = assay: Alkaline phosphatase activity per milligram of protein (cell differentiation), Caco-2; type: cell-based, human; settings: Example 48: LNnT or 2′FL 20, 200, 2000 mg/L; 6′SL 40, 400, 4000 mg/mL; 72 hours
Experimental: In a second experiment, Caco-2 cells, which model more mature epithelial cells of the small intestine, are incubated in a humidified atmosphere of 5% carbon dioxide at 37° C. in the presence of LNnT or 2′FL at concentrations of 0 mg/L (“0”), 20 mg/L (“20”), 200 mg/L (“200”), and 2000 mg/L (“2000”) or in the presence of 6′SL at concentrations of 0 mg/mL (“0”), 40 mg/mL (“40”), 400 mg/mL (“400”), and 4000 mg/mL (“4000”) for 72 hours. The culture medium utilized is Dulbecco's Modified Eagle Medium (Life Technologies, Foster City Calif.) supplemented with 10% fetal calf serum and 2 mM glutamine. The controls (“energy”) consist of 91.5 mg lactose and 64.2 mg N-acetyllactosamine/L for LNnT; 133 mg lactose and 67 mg fucose/L for 2′FL; and 195 mg lactose and 205 mg sialic acid/L for 6′SL. The impact of the LNnT, 2′FL, and 6′SL at various levels and the control on Caco-2 cell proliferation is measured using a conventional BrdU assay, which measures the number of cells that have recently synthesized DNA. […] Additionally, the impact of LNnT, 2′FL, and 6′SL at various levels and the controls on the alkaline phosphatase activity per milligram of protein for Caco-2 cells, which is an indication of cell differentiation, is measured.

CC(=O)N[C@H]1[C@H]([C@H](O)[C@H](O)CO)O[C@@](O[C@H]2[C@@H](O)[C@@H](CO)O[C@@H](O[C@H]3[C@H](O)[C@@H](O)C(O)O[C@@H]3CO)[C@@H]2O)(C(=O)O)C[C@@H]1O (stereo partly drawn) [3′SL, 3′-Sialyllactose]
growth / ability to ferment (OD600) (bifidobacteria strains): only B. infantis ATCC 15697 and B. infantis M-63 are able to ferment
growth / ability to ferment (OD600) (B. infantis ATCC 15697): able to ferment
growth / ability to ferment (OD600) (B. infantis M-63): able to ferment

CC(=O)N[C@@H]1[C@@H](O)[C@H](O)[C@@H](CO)O[C@H]1O [NAG, reference compound]
growth / ability to ferment (OD600) (bifidobacteria strains): Only B. breve ATCC 15700 is able to ferment
growth / ability to ferment (OD600) (B. breve ATCC 15700): able to ferment

OC[C@H]1O[C@@H](O[C@H]2[C@H](O)[C@@H](O)C(O)O[C@@H]2CO)[C@H](O)[C@@H](O)[C@H]1O (stereo partly drawn) [lactose]
growth / ability to ferment (OD600) (bifidobacteria strains): the bifidobacteria, which is not able to ferment galactose, also has reduced growth on lactose

CC(=O)N[C@H]1C([C@H](O)[C@H](O)CO)O[C@@](OCC2O[C@@H](O[C@@H]3C(CO)OC(O)C(O)[C@H]3O)C(O)[C@@H](O)[C@H]2O)(C(=O)[O-])C[C@H]1O.[Na+] (stereo in doubt) [6′SL, α-(2-6′)-N-Acetylneuraminyl-lactose sodium salt]
bifidobacteria populations (Bifidobacterium spp.): may also be bifidogenic; also recorded: tended to generally increase bifidobacteria levels
growth / ability to ferment (OD600) (bifidobacteria strains): only B. infantis ATCC 15697 and B. infantis M-63 are able to ferment
fermentation rate (infant fecal bacteria): about 1,809 μg/g of dry matter/hour
acetate production (infant fecal bacteria; 3 and 6 h): intermediate
acetate production, formula fed versus breast fed infants (infant fecal bacteria; 12 h): greater
propionate production (infant fecal bacteria; 12 h of fermentation): large increase
total SCFA production (infant fecal bacteria; 12 h of fermentation, sodium salt): greater (P<0.05); also recorded: substantial amounts of SCFA
total SCFA production (infant fecal bacteria; after 3 and 6 h of fermentation): lower (P<0.05) with 6′SL compared to GOS
total SCFA production, formula fed versus breast fed infants (infant fecal bacteria; after 6 and 12 h of fermentation): greater (P=0.01) fermentation by formula fed infants
propionate production (infant fecal bacteria; overall): greater (P<0.0001) propionate production than all other substrates
fermentability by infant fecal bacteria (infant fecal bacteria; overall, sodium salt): highly fermentable; also recorded: readily fermented
lactate accumulation (infant fecal bacteria; up to 12 h, sodium salt): no lactate accumulation; also recorded: little lactate had accumulated
alkaline phosphatase activity per milligram of protein (cell differentiation) (HT-29 cells [1]): no apparent effect
HT-29 cell proliferation (HT-29 cells [2]): capable of reducing cell proliferation at higher doses; also recorded: inhibits intestinal cell proliferation in immature epithelial cells
growth / ability to ferment (OD600) (B. infantis ATCC 15697): able to ferment
growth / ability to ferment (OD600) (B. infantis M-63): able to ferment
alkaline phosphatase activity per milligram of protein (cell differentiation) (Caco-2 cells): no apparent effect

C[C@H](O)[C@@H](O)[C@@H](O)[C@H](O)C=O [L-fucose, reference compound]
growth / ability to ferment (OD600) (bifidobacteria strains): None of the bifidobacteria are able to ferment
growth / ability to ferment (OD600) (B. infantis ATCC 15697): not able to ferment
growth / ability to ferment (OD600) (B. infantis M-63): not able to ferment

O=C(CO)[C@@H](O)[C@H](O)[C@H](O)CO [fructose]
growth / ability to ferment (OD600) (bifidobacteria strains): majority of bifidobacteria is able to ferment
